Patent US20260022116A1, “IMIDAZOPYRIDINE COMPOUNDS, PREPARATION THEREOF AND THERAPEUTIC USES THEREOF” (SANOFI, priority 2022, published 2026)
Structures can show the parent of a compound that is named as a salt. Where two headings read alike, the source gives them in different places.

How the values were obtained:
ERK5 [1] = target: T1, ERK5 (Homo sapiens, UniProt Q13164); experiment: biochemical
Target sequence in this assay (Q13164 55-347 limits assumed): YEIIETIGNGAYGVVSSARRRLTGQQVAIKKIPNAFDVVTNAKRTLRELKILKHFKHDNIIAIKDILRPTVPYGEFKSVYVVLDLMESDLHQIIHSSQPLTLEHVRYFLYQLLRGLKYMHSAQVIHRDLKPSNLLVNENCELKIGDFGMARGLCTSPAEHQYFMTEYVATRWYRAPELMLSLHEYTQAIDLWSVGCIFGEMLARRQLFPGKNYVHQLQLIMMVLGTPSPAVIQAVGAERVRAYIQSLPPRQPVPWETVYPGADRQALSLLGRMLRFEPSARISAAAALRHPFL
Description: (§1) Two assays were performed to assess the ERK5 inhibitory activity of compounds of the Examples, a cell-based assay and a cell-free biochemical assay.
An assay was performed to measure the capacity of each compound to inhibit ERK5 enzymatic activity. Compound potency was evaluated by Time-Resolved Forster Resonance Energy Transfer (FRET system). […] A mixture of 1 mM ATP and 1 μM biotinylated synthetic peptide was added (Biosyntan GmbH). This synthetic peptide represents amino acids 30-52 of Eukaryotic translation initiation factor 4E-binding protein 1 (see, e.g., the sequence under accession No. NP_004086.1) biotinylated at the N-terminus.

ERK5 [2] = target: T1, ERK5; experiment: cell-based
Target sequence in this assay (Q13164 whole entry): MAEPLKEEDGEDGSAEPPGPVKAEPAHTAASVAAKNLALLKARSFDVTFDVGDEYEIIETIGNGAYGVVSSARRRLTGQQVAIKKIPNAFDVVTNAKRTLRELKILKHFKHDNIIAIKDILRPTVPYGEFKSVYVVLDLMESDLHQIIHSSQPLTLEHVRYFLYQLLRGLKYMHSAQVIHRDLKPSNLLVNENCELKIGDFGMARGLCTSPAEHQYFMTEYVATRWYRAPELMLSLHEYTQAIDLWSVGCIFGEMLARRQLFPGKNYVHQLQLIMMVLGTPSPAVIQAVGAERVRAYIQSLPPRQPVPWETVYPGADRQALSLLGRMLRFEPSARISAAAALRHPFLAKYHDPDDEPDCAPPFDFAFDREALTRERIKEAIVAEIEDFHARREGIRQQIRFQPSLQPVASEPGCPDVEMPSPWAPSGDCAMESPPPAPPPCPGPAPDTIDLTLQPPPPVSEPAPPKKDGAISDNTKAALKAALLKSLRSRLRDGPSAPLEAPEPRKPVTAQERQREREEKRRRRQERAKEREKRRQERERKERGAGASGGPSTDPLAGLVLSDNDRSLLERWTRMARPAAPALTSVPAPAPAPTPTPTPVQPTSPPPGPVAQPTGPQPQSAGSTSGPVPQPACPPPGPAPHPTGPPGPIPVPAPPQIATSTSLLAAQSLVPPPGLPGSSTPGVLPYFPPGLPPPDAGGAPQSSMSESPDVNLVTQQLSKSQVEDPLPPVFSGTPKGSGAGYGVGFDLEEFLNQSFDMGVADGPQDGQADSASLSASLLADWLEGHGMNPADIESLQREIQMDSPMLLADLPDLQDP
Description: as §1
(§2) The renal cancer cell line SN12C was transduced by a lentivirus pGreenFire1 MEF2 EF1 Neo (ref TR030VA-N) from SBI using standard infection protocol. pGreenFire1 MEF2 EF1 Neo allows the expression of luciferase gene under the control of minimal promoter with MEF2 transcriptional response elements. Cells harboring the reporter construct were selected by geneticin treatment. The selected cells were then transposed by a piggyback based plasmid pCM4007 allowing the expression of constitutively activated MEK5DD under control of TREG3 promoter, a doxycycline regulated promoter. Transposed cells were selected by puromycin treatment. Upon doxycycline treatment (1 μg/ml) MEK5DD was expressed. MEK5DD activates ERK5 that phosphorylates MEF2C protein. Activated MEF2C protein can bind to its transcriptional response elements. Then the luciferase is expressed. In a 96-well plate (96F nuncleon ref137101 thermofisher), 50,000 cells were inoculated in 142.5 μl of RPMI medium containing 10% fetal calf serum, 1% glutamine, and 1 μg/ml doxycycline. […] The luciferase activity was measured using the Kit Bright Glo Luminescent Cell Assay Cat E2610 (Promega) according to the manufacturer's protocol. Luminescence was determined using 0.2 second reading/well using a Tecan SPARK. IC50 values were calculated using XLFIT5 for Microsoft Excel using method 205.

ERK5 [3] = target: T1, ERK5
Target sequence in this assay (Q13164 whole entry): as above
Description: as §1, §2

Row | SMILES | IC50 (ERK5 [1]) | IC50 (ERK5 [2]) | IC50 (ERK5 [3])
1 | O=C(c1ccc(C(F)(F)F)c(=O)[nH]1)N1CCC(c2ccnc3[nH]c(C4CCOCC4)nc23)CC1 [Example 53, 6-[4-(2-Tetrahydropyran-4-yl-3H-imidazo[4,5-b]pyridin-7-yl)piperidine-1-carbonyl]-3-(trifluoromethyl)-1H-pyridin-2-one, hydrochloride] | 262 nM | > 10000 nM | –
2 | O=C(c1ccc(OC(F)(F)F)cc1)N1CCC(c2c(F)cnc3[nH]c(C45CC(C(F)(F)F)(C4)C5)nc23)CC1 [Example 436, [4-[6-fluoro-2-[3-(trifluoromethyl)-1-bicyclo[1.1.1]pentanyl]-3H-imidazo[4,5-b]pyridin-7-yl]-1-piperidyl]-[4-(trifluoromethoxy)phenyl]methanone] | 4500 nM | 38 to 88 nM | –
3 | O=C(c1cnn(Cc2ccccc2Cl)c1)N1CCC(c2ccnc3[nH]c(C4CCOCC4)nc23)CC1 [Example 112, [1-[(2-chlorophenyl)methyl]pyrazol-4-yl]-[4-(2-tetrahydropyran-4-yl-3H-imidazo[4,5-b]pyridin-7-yl)-1-piperidyl]methanone] | 14900 nM | > 10000 nM | –
4 | O=C(c1ccc(S(F)(F)(F)(F)F)cc1)N1CCC(c2c(F)cnc3[nH]c(C4CCOC4)nc23)CC1 (single isomer, unassigned) [Example 400, [4-[6-fluoro-2-[tetrahydrofuran-3-yl]-3H-imidazo[4,5-b]pyridin-7-yl]-1-piperidyl]-[4-(pentafluoro-λ^6-sulfanyl)phenyl]methanone] | 684 nM | 104 to 165 nM | –
5 | O=C(c1ccc(S(F)(F)(F)(F)F)cc1)N1CCC(c2ccnc3[nH]c(C4CCOC4)nc23)CC1 (single isomer, unassigned) [Example 301, [4-(pentafluoro-λ^6-sulfanyl)phenyl]-[4-[2-[tetrahydrofuran-3-yl]-3H-imidazo[4,5-b]pyridin-7-yl]-1-piperidyl]methanone] | 273 nM | 284 nM | –
6 | Nc1nc2ccccc2nc1C(=O)N1CCC(c2ccnc3[nH]c(C4CCOCC4)nc23)CC1 [Example 116, (3-aminoquinoxalin-2-yl)-[4-(2-tetrahydropyran-4-yl-3H-imidazo[4,5-b]pyridin-7-yl)-1-piperidyl]methanone] | 16400 nM | > 10000 nM | –
7 | Nc1cc(OC(F)(F)F)ccc1C(=O)N1CCC(c2ccnc3[nH]c(CC4CCOC4)nc23)CC1 (single isomer, unassigned) [Example 2, [2-Amino-4-(trifluoromethoxy)phenyl]-[4-[2-(tetrahydrofuran-3-ylmethyl)-3H-imidazo[4,5-b]pyridin-7-yl]-1-piperidyl]methanone] | 140 nM | 134 nM | –
8 | Nc1c(C(=O)N2CCC(c3ccnc4[nH]c(C5CCOCC5)nc34)CC2)ccc(OC(F)(F)F)c1F [Example 189, [2-amino-3-fluoro-4-(trifluoromethoxy)phenyl]-[4-(2-tetrahydropyran-4-yl-3H-imidazo[4,5-b]pyridin-7-yl)-1-piperidyl]methanone] | 36 nM | 37 nM | –
9 | Nc1cc(OC(F)(F)F)ccc1C(=O)N1CCC(c2ccnc3[nH]c(C4COCCO4)nc23)CC1 (single isomer, unassigned) [Example 144, [2-amino-4-(trifluoromethoxy)phenyl]-[4-[2-[1,4-dioxan-2-yl]-3H-imidazo[4,5-b]pyridin-7-yl]-1-piperidyl]methanone] | 102 nM | 98 nM | –
10 | O=C1Nc2ccccc2OC1CC(=O)N1CCC(c2ccnc3[nH]c(C4CCOCC4)nc23)CC1 (centres unmarked) [Example 106, 2-[2-oxo-2-[4-(2-tetrahydropyran-4-yl-3H-imidazo[4,5-b]pyridin-7-yl)-1-piperidyl]ethyl]-4H-1,4-benzoxazin-3-one] | 25700 nM | > 10000 nM | –
11 | CS(=O)(=O)c1ccc(C(=O)N2CCC(c3ccnc4[nH]c(C5CCOCC5)nc34)CC2)c(N)c1 [Example 84, (2-amino-4-methylsulfonyl-phenyl)-[4-(2-tetrahydropyran-4-yl-3H-imidazo[4,5-b]pyridin-7-yl)-1-piperidyl]methanone] | 26800 nM | > 10000 nM | –
12 | Nc1cc(OC(F)(F)F)ccc1C(=O)N1CCC(c2ccnc3[nH]c(C4CCN(CC(F)F)CC4)nc23)CC1 [Example 37, [2-Amino-4-(trifluoromethoxy)phenyl]-[4-[2-[1-(2,2-difluoroethyl)-4-piperidyl]-3H-imidazo[4,5-b]pyridin-7-yl]-1-piperidyl]methanone] | 47 nM | 47 nM | –
13 | CC12CC(N)(C1)C(c1nc3c(C4CCN(C(=O)c5ccc(OC(F)(F)F)cc5N)CC4)ccnc3[nH]1)O2 (single isomer, unassigned) [Example 254, [4-[2-[4-amino-1-methyl-2-oxabicyclo[2.1.1]hexan-3-yl]-3H-imidazo[4,5-b]pyridin-7-yl]-1-piperidyl]-[2-amino-4-(trifluoromethoxy)phenyl]methanone] | 207 nM | 203 nM | –
14 | O=C(c1ccc(C(F)(F)F)[nH]c1=O)N1CCC(c2ccnc3[nH]c(C4CCOCC4)nc23)CC1 [Example 264, 3-[4-(2-tetrahydropyran-4-yl-3H-imidazo[4,5-b]pyridin-7-yl)piperidine-1-carbonyl]-6-(trifluoromethyl)-1H-pyridin-2-one] | 98 nM | > 10000 nM | –
15 | COC12CC(c3nc4c(C5CCN(C(=O)c6ccc(OC(F)(F)F)cc6)CC5)c(F)cnc4[nH]3)(C1)C2 [Example 426, [4-[6-fluoro-2-(3-methoxy-1-bicyclo[1.1.1]pentanyl)-3H-imidazo[4,5-b]pyridin-7-yl]-1-piperidyl]-[4-(trifluoromethoxy)phenyl]methanone] | 69 nM | – | 10 nM
16 | Nc1cc(OC(F)(F)F)ccc1C(=O)N1CCC(c2c(F)cnc3[nH]c(C45CC(C(F)(F)F)(C4)C5)nc23)CC1 [Example 432, [2-amino-4-(trifluoromethoxy)phenyl]-[4-[6-fluoro-2-[3-(trifluoromethyl)-1-bicyclo[1.1.1]pentanyl]-3H-imidazo[4,5-b]pyridin-7-yl]-1-piperidyl]methanone] | 3870 nM | 16 to 43 nM | –
17 | O=C(C1CC1c1cccc(O)c1)N1CCC(c2ccnc3[nH]c(C4CCOCC4)nc23)CC1 (centres unmarked) [Example 86, [2-(3-hydroxyphenyl)cyclopropyl]-[4-(2-tetrahydropyran-4-yl-3H-imidazo[4,5-b]pyridin-7-yl)-1-piperidyl]methanone] | 25200 nM | > 10000 nM | –
18 | CN1CCC(c2nc3c(C4CCN(C(=O)c5ccc(OC(F)(F)F)cc5)CC4)ccnc3[nH]2)C1 (single isomer, unassigned) [Example 24, [4-[2-(1-Methylpyrrolidin-3-yl)-3H-imidazo[4,5-b]pyridin-7-yl]-1-piperidyl]-[4-(trifluoromethoxy)phenyl]methanone] | 148 nM | 150 nM | –
19 | O=C(C1CCN(c2ccccc2Cl)C1)N1CCC(c2ccnc3[nH]c(C4CCOCC4)nc23)CC1 (centres unmarked) [Example 118, [1-(2-chlorophenyl)pyrrolidin-3-yl]-[4-(2-tetrahydropyran-4-yl-3H-imidazo[4,5-b]pyridin-7-yl)-1-piperidyl]methanone] | 18000 nM | > 10000 nM | –
20 | Nc1cc(S(F)(F)(F)(F)F)ccc1C(=O)N1CCC(c2ccnc3[nH]c(C4CCOC4)nc23)CC1 (single isomer, unassigned) [Example 308, [2-amino-4-(pentafluoro-λ^6-sulfanyl)phenyl]-[4-[2-[tetrahydrofuran-3-yl]-3H-imidazo[4,5-b]pyridin-7-yl]-1-piperidyl]methanone] | 97 nM | 99 nM | –
21 | Nc1c(C(=O)N2CCC(c3ccnc4[nH]c(C5CCOCC5)nc34)CC2)cnn1-c1ccccc1 [Example 105, (5-amino-1-phenyl-pyrazol-4-yl)-[4-(2-tetrahydropyran-4-yl-3H-imidazo[4,5-b]pyridin-7-yl)-1-piperidyl]methanone] | 6910 nM | 6640 nM | –
22 | COC12CC(c3nc4c(C5CCN(C(=O)c6ccc(OC(F)(F)F)cc6N)CC5)ccnc4[nH]3)(C1)C2 [Example 150, [2-amino-4-(trifluoromethoxy)phenyl]-[4-[2-(3-methoxy-1-bicyclo[1.1.1]pentanyl)-3H-imidazo[4,5-b]pyridin-7-yl]-1-piperidyl]methanone] | 13 nM | 13 nM | –
23 | O=C(c1ccc(OC(F)(F)F)cc1)N1CCC(c2c(F)cnc3[nH]c(C4CCC5(COC5)N(C(=O)O)C4)nc23)CC1 (racemic) [Example 461, (rac)-7-[6-fluoro-7-[1-[4-(trifluoromethoxy)benzoyl]-4-piperidyl]-3H-imidazo[4,5-b]pyridin-2-yl]-2-oxa-5-azaspiro[3.5]nonane-5-carboxylic acid] | 244 nM | – | –
24 | Nc1cc(OC(F)(F)F)ccc1C(=O)N1CCC(c2ccnc3[nH]c(C4CNCCO4)nc23)CC1 (single isomer, unassigned) [Example 96, [2-amino-4-(trifluoromethoxy)phenyl]-[4-[2-[morpholin-2-yl]-3H-imidazo[4,5-b]pyridin-7-yl]-1-piperidyl]methanone] | 83 nM | 87 nM | –
25 | O=C(c1cn(-c2ccc(F)cc2)cn1)N1CCC(c2ccnc3[nH]c(C4CCOCC4)nc23)CC1 [Example 120, [1-(4-fluorophenyl)imidazol-4-yl]-[4-(2-tetrahydropyran-4-yl-3H-imidazo[4,5-b]pyridin-7-yl)-1-piperidyl]methanone] | 6600 nM | > 10000 nM | –
26 | COC12CC(c3nc4c(C5CCN(C(=O)c6ccc(S(F)(F)(F)(F)F)cc6)CC5)ccnc4[nH]3)(C1)C2 [Example 302, [4-[2-(3-methoxy-1-bicyclo[1.1.1]pentanyl)-3H-imidazo[4,5-b]pyridin-7-yl]-1-piperidyl]-[4-(pentafluoro-λ^6-sulfanyl)phenyl]methanone] | 95 nM | 97 nM | –
27 | O=C(c1ccc(S(F)(F)(F)(F)F)cc1)N1CCC(c2ccnc3[nH]c(C4CCCO4)nc23)CC1 (single isomer, unassigned) [Example 298, [4-(pentafluoro-λ^6-sulfanyl)phenyl]-[4-[2-[tetrahydrofuran-2-yl]-3H-imidazo[4,5-b]pyridin-7-yl]-1-piperidyl]methanone] | 166 nM | 163 nM | –
